This test addresses T1, recombinant human NaV1.8 stably transfected HEK cells (Homo sapiens, UniProt Q9Y5Y9).
T1 construct: expressed in transfected cells; host or cells: HEK cells, stably transfected
Put plainly: Compound profiling on NaV1.8, human NaV1.8 cell line, SyncroPatch384PE automated patch clamp assay (Example 102, first set of compounds, Table 16). It is filed as cell-based. As to conditions: human NaV1.8 HEK cells, Table 16 (first set of compounds). The procedure:
Compound Profiling on NaV1.8—Human NaV1.8 Cell Line—SyncroPatch384PE Assay
Compounds were tested on recombinant human NaV1.8 stably transfected HEK cells using the SyncroPatch384PE system, an automated patch clamp device. Cells were cultured at 37° C./5% CO2 in DMEM medium supplemented with GlutaMAX I, NEAA 1%, FBS 10% and seeded in T175 flasks. Cells were cultured at 30° C. one day prior to recording sodium currents. On the day of the recordings, cells were detached with 0.05% Trypsin-EDTA, resuspended in serum free DMEM medium and placed into the SyncroPatch384PE 6° C. pre-cooled cell hotel and shaken at 200 rpm. Intracellular solution (IC) contained, in mM: 10, CsCl; 110, CsF; 20, EGTA; 10, HEPES. Extracellular solution (EC) contained, in mM: 140, NaCl; 4, KCl; 5, Glucose; 10, HEPES; 2, CaCl2; 1, MgCl2. Washing solution contained, in mM: 40, NMDG; 100, NaCl; 4, KCl; 10, Glucose; 10, HEPES; 5, CaCl2; 1, MgCl2.
Compounds were tested in triplicate in 0.1% DMSO and 0.030% Pluronic Acid. Compounds were diluted 1:3 in EC solution to create a 10-point concentration response curve, spanning a final concentration range from 20-0.001 μM in the assay plate. Each plate contained tetracaine and another tool compound as positive controls. Up to 8 compounds were tested on one plate. 250 μM tetracaine and 0.1% DMSO were used as high and low controls, respectively. Whole cell patch clamp recordings were conducted according to Nanion's standard procedure for SyncroPatch384PE®. Cells were held at a holding potential of −120 mV. A depolarization step to 10 mV for 30 ms was applied (P1 measurement), followed by a hyperpolarization step to −100 mV for 100 ms. An inactivation step at −40 mV for 10 sec was applied before stepping to −100 mV for 20 ms, followed by a step to 10 mV for 30 ms (P2 measurement) and then back to −100 mV for 30 ms. Sweep interval was 15 sec with a sampling rate of 10 kHz. Following establishment of the whole-cell configuration in EC, two washing steps with reference buffer were performed to stabilize the baseline. Compounds were then applied by the SynchroPatch into each well and the current was recorded for five minutes in EC, followed by application of tetracaine to achieve full block at the end of the experiment. The potency of the compounds was assessed on two read-outs, resting state block (P1 measurement) or inactivated state block (P2 measurement) to obtain IC50 values. Values were normalized to high (tetracaine) and low (DMSO) controls. The IC50 values are listed in Table 16 as follows: “A” represents an IC50 less than or equal to 20 nM, “B” represents an IC50 greater than 20 nM to less than or equal to 40 nM, “C” represents an IC50 greater than 40 nM to less than or equal to 200 nM, “D” represents an IC50 greater than 200 nM to less than or equal to 500 nM.
For orientation: The patch-clamp technique gives a direct electrical read-out from membranes.

[1] abbreviates: inactivated state block (P2 measurement), read-out: P2IC50.
Where [2] appears, read: resting state block (P1 measurement), read-out: P1IC50.

pIC50: −log10 of the molar value. Where two headings read alike, the source gives them in different places.

T1 sequence (Q9Y5Y9 whole entry): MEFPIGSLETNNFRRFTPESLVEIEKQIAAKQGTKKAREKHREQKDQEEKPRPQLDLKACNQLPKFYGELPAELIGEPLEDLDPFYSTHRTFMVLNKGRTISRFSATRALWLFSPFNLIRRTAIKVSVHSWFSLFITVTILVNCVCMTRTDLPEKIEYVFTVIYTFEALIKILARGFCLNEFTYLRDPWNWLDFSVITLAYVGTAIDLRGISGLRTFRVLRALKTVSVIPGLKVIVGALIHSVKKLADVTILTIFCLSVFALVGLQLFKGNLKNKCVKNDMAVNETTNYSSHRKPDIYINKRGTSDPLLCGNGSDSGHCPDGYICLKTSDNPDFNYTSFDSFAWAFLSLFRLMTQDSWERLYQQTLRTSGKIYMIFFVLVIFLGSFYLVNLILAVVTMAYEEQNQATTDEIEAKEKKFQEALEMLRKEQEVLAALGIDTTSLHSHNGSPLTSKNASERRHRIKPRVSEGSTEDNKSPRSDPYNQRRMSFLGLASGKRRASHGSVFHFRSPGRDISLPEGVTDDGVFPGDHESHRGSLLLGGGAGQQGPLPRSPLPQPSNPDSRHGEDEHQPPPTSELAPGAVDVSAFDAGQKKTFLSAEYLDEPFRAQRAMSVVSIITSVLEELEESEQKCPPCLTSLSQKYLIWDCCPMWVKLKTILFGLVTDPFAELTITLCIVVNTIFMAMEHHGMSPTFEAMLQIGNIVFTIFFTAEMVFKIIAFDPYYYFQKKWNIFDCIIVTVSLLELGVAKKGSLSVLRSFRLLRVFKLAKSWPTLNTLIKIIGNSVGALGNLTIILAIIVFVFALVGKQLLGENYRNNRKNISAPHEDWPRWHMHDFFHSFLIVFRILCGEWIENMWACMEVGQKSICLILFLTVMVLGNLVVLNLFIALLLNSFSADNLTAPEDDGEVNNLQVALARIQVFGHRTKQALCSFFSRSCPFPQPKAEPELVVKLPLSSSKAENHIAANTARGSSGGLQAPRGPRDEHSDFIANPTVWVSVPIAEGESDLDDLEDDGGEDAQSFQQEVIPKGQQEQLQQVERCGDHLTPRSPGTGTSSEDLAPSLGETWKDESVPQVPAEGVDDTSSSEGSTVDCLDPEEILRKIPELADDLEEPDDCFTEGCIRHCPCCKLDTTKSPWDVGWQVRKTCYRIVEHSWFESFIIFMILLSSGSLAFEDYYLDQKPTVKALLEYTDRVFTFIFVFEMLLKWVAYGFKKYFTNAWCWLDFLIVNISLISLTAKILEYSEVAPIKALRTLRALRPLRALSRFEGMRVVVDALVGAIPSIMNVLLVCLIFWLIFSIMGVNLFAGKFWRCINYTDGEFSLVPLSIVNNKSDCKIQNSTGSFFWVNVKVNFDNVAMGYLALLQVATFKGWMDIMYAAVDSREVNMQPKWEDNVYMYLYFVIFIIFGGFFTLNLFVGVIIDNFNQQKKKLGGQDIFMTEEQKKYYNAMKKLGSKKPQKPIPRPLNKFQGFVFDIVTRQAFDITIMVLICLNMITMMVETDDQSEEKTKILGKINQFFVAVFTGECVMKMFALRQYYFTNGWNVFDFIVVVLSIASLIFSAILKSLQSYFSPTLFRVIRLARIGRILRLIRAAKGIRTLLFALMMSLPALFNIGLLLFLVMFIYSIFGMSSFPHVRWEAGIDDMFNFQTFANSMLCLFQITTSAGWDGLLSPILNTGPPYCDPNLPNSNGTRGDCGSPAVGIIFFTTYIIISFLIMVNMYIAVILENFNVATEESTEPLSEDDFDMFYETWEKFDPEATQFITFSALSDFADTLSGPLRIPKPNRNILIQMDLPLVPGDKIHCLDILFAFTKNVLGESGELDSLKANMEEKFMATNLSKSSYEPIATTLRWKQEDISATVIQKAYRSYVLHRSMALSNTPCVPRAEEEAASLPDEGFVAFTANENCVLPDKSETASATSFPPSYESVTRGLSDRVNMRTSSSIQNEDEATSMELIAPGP

On to `CS(=N)(=O)c1cccc(NC(=O)c2cc(C(F)(F)F)cnc2OC2CC3C(C2)C3(F)F)c1` (stereo not shown) [Compound 1672], for which the pIC50 by setting is: under setting [1], 6.30 to 6.70; under setting [2], 6.30 to 6.70.
With `COc1cc(C#N)ccc1Oc1nc(C(F)(F)F)nc(C)c1C(=O)Nc1cccc(C(N)=O)c1` [Compound 1742, N-(3-carbamoylphenyl)-4-(4-cyano-2-methoxy-phenoxy)-6-methyl-2-(trifluoromethyl)pyrimidine-5-carboxamide], the pIC50 under setting [1] was 7.40 to 7.70 and the pIC50 under setting [2] was 6.70 to 7.40.
For `COc1cc(C#N)ccc1Oc1ncc(C(F)(F)F)cc1C(=O)Nc1ccc[n+]([O-])c1` [Compound 1702], in that order: 6.70 to 7.40 and 6.70 to 7.40.
For `CS(=O)(=O)c1cccc(NC(=O)c2cc(C(F)(F)F)cnc2OC2CCOC2)c1` (stereo not shown) [Compound 1662] the same measures were 6.30 to 6.70 and 6.30 to 6.70.
For `COc1cc(C#N)ccc1Oc1nnc(-c2ccc(C#N)cc2)c(C)c1C(=O)Nc1cccc([S@](C)(=N)=O)c1` [Compound 1531, (R)-3-(4-cyano-2-methoxyphenoxy)-6-(4-cyanophenyl)-5-methyl-N-(3-(S-methylsulfonimidoyl)phenyl)pyridazine-4-carboxamide], in that order: 6.70 to 7.40 and 6.70 to 7.40.
As for `Cc1nn(C)c(C)c1Oc1ncc(C(F)(F)F)cc1C(=O)Nc1cccc(S(C)(=O)=O)c1` [Compound 1611], the pIC50 under setting [1] was 6.30 to 6.70 and the pIC50 under setting [2] is 6.30 to 6.70.
Regarding `Cc1c(C(F)(F)F)nnc(Oc2ccc(OC(F)F)c(F)c2F)c1C(=O)Nc1cccc(S(C)(=O)=O)c1` [Compound 1422], the pIC50 under setting [1] was no less than 7.70 and the pIC50 under setting [2] is no less than 7.70.
For the compound `COc1cc(C#N)ccc1Oc1ncc(Br)cc1C(=O)Nc1cccc(S(C)(=N)=O)c1` (stereo not shown) [Compound 1686], the pIC50 reads like this: under setting [1], no less than 7.70; under setting [2], no less than 7.70.
Take `CS(=N)(=O)c1cccc(NC(=O)c2cc(C(F)(F)F)cnc2Oc2ccc(OCc3ccccc3)cc2)c1` (stereo not shown) [Compound 1587]: the pIC50 under setting [1] is 6.70 to 7.40 and the pIC50 under setting [2] is 6.70 to 7.40.
Take `Cc1nc(OC2CCC2)ccc1Oc1ncc(C(F)(F)F)cc1C(=O)Nc1cccc(S(C)(=N)=O)c1` (stereo not shown) [Compound 1669]: the pIC50 by setting is: under setting [1], 6.70 to 7.40; under setting [2], 6.70 to 7.40.
As for `CSc1cccc(NC(=O)c2c(Oc3ccc(C#N)cc3C)nnc(C(F)(F)F)c2C)c1` [Compound 14, 3-(4-Cyano-2-methylphenoxy)-5-methyl-N-[3-(methylsulfanyl)phenyl]-6-(trifluoromethyl)pyridazine-4-carboxamide], the pIC50 is 6.30 to 6.70 under setting [1] and 6.30 to 6.70 under setting [2].
As for `COc1c(Oc2nccc(C(F)(F)F)c2C(=O)Nc2cccc(C(N)=O)c2)ccc(F)c1F` [Compound 1652], the pIC50 runs as follows: under setting [1], 7.40 to 7.70; under setting [2], 7.40 to 7.70.
As for `Cc1ccc(Oc2nnc(C(F)(F)F)c(C)c2C(=O)Nc2cccc(S(C)(=N)=O)c2)c(C)n1` (single isomer, unassigned) [Compound 1485, 3-[(2,6-dimethylpyridin-3-yl)oxy]-N-{3-[imino(methyl)oxo-λ^6-sulfanyl]phenyl}-5-methyl-6-(trifluoromethyl)pyridazine-4-carboxamide], the pIC50 under setting [2] was 6.30 to 6.70.
Regarding `COc1cc(C#N)cc(Oc2ncc(C(F)(F)F)cc2C(=O)Nc2cccc(S(C)(=N)=O)c2)c1` (stereo not shown) [Compound 1592], the pIC50 is, setting by setting: under setting [1], 6.30 to 6.70; under setting [2], 6.30 to 6.70.
For `COc1cc(C#N)ccc1Oc1nnc(C2CC2(F)F)c(C)c1C(=O)Nc1cccc([S@@](C)(=N)=O)c1` (stereo partly drawn) [Compound 1528, 3-(4-cyano-2-methoxyphenoxy)-6-(2,2-difluorocyclopropyl)-N-{3-[(S)-imino(methyl)oxo-λ^6-sulfanyl]phenyl}-5-methylpyridazine-4-carboxamide], the pIC50 by setting is: under setting [1], 6.70 to 7.40; under setting [2], 6.70 to 7.40.
In the case of `COc1cc(C#N)ccc1Oc1nnc(C(F)(F)F)c(C)c1C(=O)Nc1ccc(C(N)=O)nc1` [Compound 1539, N-(6-carbamoyl-3-pyridyl)-3-(4-cyano-2-methoxy-phenoxy)-5-methyl-6-(trifluoromethyl)pyridazine-4-carboxamide], the pIC50 under setting [1] is 7.40 to 7.70 and the pIC50 under setting [2] was 6.70 to 7.40.
For `COc1c(Oc2ncc(C(F)(F)F)cc2C(=O)Nc2cccc(C(N)=O)c2)ccc(F)c1F` [Compound 1619] the same measures were no less than 7.70 and no less than 7.70.
As for `COc1cc(C#N)ccc1Oc1nnc(-c2ccccn2)c(C)c1C(=O)Nc1cccc(S(C)(=N)=O)c1` (stereo not shown) [Compound 1458, 3-(4-cyano-2-methoxyphenoxy)-5-methyl-N-(3-(S-methylsulfonimidoyl)phenyl)-6-(pyridin-2-yl)pyridazine-4-carboxamide], the pIC50 under setting [1] is 6.30 to 6.70 and the pIC50 under setting [2] is 6.30 to 6.70.
On to `CS(=O)(=O)c1cccc(NC(=O)c2cc(C(F)(F)F)cnc2OC2CCC(=O)NC2)c1` (stereo not shown) [Compound 1606], for which the pIC50 runs as follows: under setting [1], 6.30 to 6.70; under setting [2], 6.30 to 6.70.
Regarding `COc1cc(C#N)ccc1Oc1nnc(-c2ccc(C(F)F)cc2)c(C)c1C(=O)Nc1cccc([S@](C)(=N)=O)c1` [Compound 1534, 3-(4-cyano-2-methoxyphenoxy)-6-[4-(difluoromethyl)phenyl]-N-{3-[(R)-imino(methyl)oxo-λ^6-sulfanyl]phenyl}-5-methylpyridazine-4-carboxamide], the pIC50 was 7.40 to 7.70 under setting [1] and 7.40 to 7.70 under setting [2].
On to `COc1c(Oc2nnc(C(F)(F)F)c(C)c2C(=O)Nc2cccc(S(C)(=N)=O)c2)ccc(Cl)c1F` (single isomer, unassigned) [Compound 1490, 3-(4-chloro-3-fluoro-2-methoxy-phenoxy)-5-methyl-N-[3-(methylsulfonimidoyl)phenyl]-6-(trifluoromethyl)pyridazine-4-carboxamide], for which the pIC50 runs as follows: under setting [1], no less than 7.70; under setting [2], no less than 7.70.
As to `Cc1c(C(F)(F)F)nnc(Oc2ccc(Cl)cc2F)c1C(=O)Nc1ccc(C(N)=O)cc1` [Compound 1404], the pIC50 is 6.70 to 7.40 under setting [1] and 6.70 to 7.40 under setting [2].
Consider `CC(C#N)Oc1cc(F)c(Oc2ncc(C(F)(F)F)cc2C(=O)Nc2cccc(C(N)=O)c2)cc1F` (stereo not shown) [Compound 1687], for which the pIC50 is, setting by setting: under setting [1], 6.30 to 6.70; under setting [2], 6.30 to 6.70.
As to `NC(=O)c1cccc(NC(=O)c2cc(C(F)(F)F)cnc2OC2CC3C(C2)C3(F)F)c1` (stereo not shown) [Compound 1677], the pIC50 is, setting by setting: under setting [1], 6.30 to 6.70; under setting [2], 6.30 to 6.70.
As to `COc1cc(C#N)ccc1Oc1nnc(-c2ccccc2F)c(C)c1C(=O)Nc1cccc(S(C)(=N)=O)c1` (stereo not shown) [Compound 1452, 3-(4-cyano-2-methoxy-phenoxy)-6-(2-fluorophenyl)-5-methyl-N-[3-(methylsulfonimidoyl)phenyl]pyridazine-4-carboxamide], the pIC50 under setting [1] was 6.70 to 7.40 and the pIC50 under setting [2] is 6.70 to 7.40.
Consider `CCc1c(C(F)(F)F)nnc(Oc2ccc(F)cc2OC)c1C(=O)Nc1cccc([S@@](C)(=N)=O)c1` [Compound 1518, (S)-5-ethyl-3-(4-fluoro-2-methoxyphenoxy)-N-(3-(S-methylsulfonimidoyl)phenyl)-6-(trifluoromethyl)pyridazine-4-carboxamide], for which the pIC50 was no less than 7.70 under setting [1] and no less than 7.70 under setting [2].
For `Cc1nc(Br)ccc1Oc1nnc(C(F)(F)F)c(C)c1C(=O)Nc1cccc(S(C)(=O)=O)c1` [Compound 1469, 3-[(6-bromo-2-methylpyridin-3-yl)oxy]-N-(3-methanesulfonylphenyl)-5-methyl-6-(trifluoromethyl)pyridazine-4-carboxamide], the pIC50 is no less than 7.70 under setting [1] and no less than 7.70 under setting [2].
Take `CS(=N)(=O)c1cccc(NC(=O)c2cc(C(F)(F)F)cnc2Oc2ccc(OC3CC3)cc2)c1` (stereo not shown) [Compound 1588]: the pIC50 reads like this: under setting [1], 6.70 to 7.40; under setting [2], 6.70 to 7.40.
